Data published in paper PMC5760624, “Microbiota derived short chain fatty acids promote histone crotonylation in the colon through histone deacetylases” (Nature Communications, 2018).

What was measured:
HDAC1 [1] = target: T1, HDAC1 (Homo sapiens, UniProt Q13547); assay: in vitro histone decrotonylation/deacetylation assay with recombinant HDAC1; also used by HDAC1 to crotonylate histones at […] or higher; assay type: biochemical
HDAC1 [2] = target: T1, HDAC1; assay: in vitro histone decrotonylation/deacetylation assay with recombinant HDAC1, western blot readout; assay type: biochemical

T1 sequence (Q13547 whole entry): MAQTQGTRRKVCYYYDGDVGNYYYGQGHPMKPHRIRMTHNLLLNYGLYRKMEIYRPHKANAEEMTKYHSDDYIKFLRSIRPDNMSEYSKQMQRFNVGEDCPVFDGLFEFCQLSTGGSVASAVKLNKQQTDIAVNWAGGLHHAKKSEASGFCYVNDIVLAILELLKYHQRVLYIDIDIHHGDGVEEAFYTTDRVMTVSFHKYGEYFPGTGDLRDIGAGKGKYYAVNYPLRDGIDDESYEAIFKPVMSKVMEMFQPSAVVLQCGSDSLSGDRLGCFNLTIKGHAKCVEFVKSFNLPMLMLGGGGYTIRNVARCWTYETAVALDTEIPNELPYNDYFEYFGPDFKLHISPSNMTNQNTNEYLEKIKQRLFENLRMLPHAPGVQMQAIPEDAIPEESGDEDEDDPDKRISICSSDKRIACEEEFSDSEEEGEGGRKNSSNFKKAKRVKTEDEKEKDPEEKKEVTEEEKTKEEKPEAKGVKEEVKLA

| SMILES | in vitro histone decrotonylation/deacetylation assay with recombinant HDAC1; als (HDAC1 [1]) | in vitro histone decrotonylation/deacetylation assay with recombinant HDAC1, wes (HDAC1 [2]) |
| --- | --- | --- |
| CC=CC(=O)O [crotonate] | We also found that crotonate inhibited decrotonylation and deacetylation in vitro (Fig. 7c). |  |
| CCCC(=O)O [butyrate] |  | In vitro, HDAC inhibitors TSA and butyrate reduced decrotonylation by HDAC1 significantly |
